# Patent US20240366693A1, “COMPOSITIONS FOR ENHANCING IMMUNOTHERAPY EFFICACY IN COLORECTAL CANCER TREATMENT” (The Chinese University of Hong Kong, priority 2023, published 2024)
# pKd: −log10 of the molar value.
# What was measured:
# HCT116, LoVo, SW480 [1] = assay: Cell viability assay on CRC cells (R. intestinalis example); assay type: cell-based, human; conditions: R.i CM 5% (vol/vol); butyrate 1 mM; inosine 0.4 μg/ml
# Method: 1000 cells per well were seed into a 96-well plate and treated with alive or pasteurized E. coli (CFU=10^6/ml) and R. intestinalis (CFU=10^6/ml), 5% (vol/vol) YCFA, E. coli CM, R. i CM in DMEM separately. Cell viability was determined by Thiazolyl Blue Tetrazolium Bromide (M5644, Merck KGaA, Dacmstadt, DE) 3 days constantly.
# HCT116, LoVo, SW480 [2] = assay: Cell apoptosis and cell cycle (flow cytometry, western blot); assay type: cell-based, human; conditions: R.i CM 5%; butyrate 1 mM; inosine 0.4 μg/ml
# Method: Flow Cytometry was used for cell apoptosis and cell cycle analysis with FACSAria cell sorter (BD Biosciences, Franklin Lakes, US). Data was analyzed by FlowJo 10.4.
# Cell apoptosis was detected by FITC Annexin V apoptosis detection kit (556547, BD Biosciences, Franklin Lakes, US). Adherent cells were removed by Trypsin-EDTA solution and washed with cold PBS twice and then resuspend in binding buffer at a concentration of 1× 10^6 cells/ml. 100 μl of cell solution was transferred to a 5 ml tube, incubated with 5 μl FITC Annexin V and 5 μl PI for 15 minutes at 25° C. in the dark. Cells were added with 400 μl binding buffer to stop staining and analyzed by flow cytometer in one hour.
# For cell cycle analysis, cell pellet was washed by PBS and incubated in 70 to 80% ethanol at −20° C. for more than two hours. In each test, 10^6 cells were used for staining in 0.5 ml PI/RNase staining buffer (550825, BD Biosciences, Franklin Lakes, US) for 15 minutes at room temperature in the dark. Tubes were stored at 4° C. protected from light and analyzed on flow cytometer with one hour.
# CD8+ T cells [3] = assay: Cytotoxic CD8+ T cell markers, T cells from mouse spleen; assay type: cell-based; conditions: butyrate 1 mM, inosine 0.4 μg/ml
# Method: (§1) T cells isolated from healthy human peripheral blood mononuclear cells (PBMC) using immunomagnetic negative selection kit (17951, Stemcell Technologies, Vancouver, CA). Isolated T cells were then cultured in complete RPMI-1640 medium supplied with human CD3/CD28 magnet beads (11161D, Thermo Fisher Scientific, Waltham, US) and 30 U/ml recombinant human IL-2 (589104, BioLgend, San Diego, US) for expiation and activation for three days. Mouse T cells were isolated from the spleen of naïve mice and purified with Mouse T cell isolation kit (19851, Thermo Fisher Scientific, Waltham, US), cultured in complete RPMI-1640 medium with mouse CD3/CD28 beads (11456D, Thermo Fisher Scientific, Waltham, US) and 30 U/ml recombinant mouse IL-2 (575404, BioLegend, San Diego, US).
# (§2) Cytotoxic CD8+ T cell markers Granzyme B, IFN-γ, TNF-α under the in vitro treatments of R.i CM, NaBu or TLR5 inbibitor TH1020 (HY-116961, MedChemExpress, Monmouth Junction, US) were analyzed with flow cytometry. Isolated human T cells were stimulated with 30 ng/ml PMA, 1 μg/ml ionomycin and 2.5 μg/ml monensin in complete RPMI-1640 medium at 37° C. for 4 hours. […]
# CD8+ T cells [4] = assay: Cytotoxic CD8+ T cell markers, T cells from human PBMC; assay type: cell-based; conditions: human PBMC T cells activated by α-CD3/CD28 and IL-2; butyrate 1 mM
# Method: as §1, §2
# NF-κB = assay: Phospho-NF-κB p65 in activated Jurkat E6.1 T cells; assay type: cell-based, human; conditions: α-CD3/CD28/IL-2 activated Jurkat E6.1 T cells
# Method: Phospho-NF-κB p65 (Ser536) Rabbit mAb (3033, Cell Signalling Technology, Danvers, US, 1:1000) and NF-κB p65 (D14E12) Rabbit mAb (8242, Cell Signalling Technology, Danvers, US, 1:1000) were used to measure NF-κB nuclear translocation in αCD3/αCD28/IL2 activated Jurkat E6.1 T cells.
# Normal human epithelial cell NCM460, human CRC cell lines HCT116, LoVo, SW480, and mouse CRC cell lines MC38 and CT26 were cultured in Dulbecco's Modified Eagle's Medium (DMEM) with 10% fetal bovine serum (FBS) and 1% penicillin-streptomycin (P/S). Jurkat E6.1 (TIB-152, ATCC) was cultured in RPMI-1640 supplied with 10% FBS and 1% penicillin-streptomycin and activated in 3 μg/ml anti-CD3 (300332, BioLgend, San Diego, US), 5 μg/ml anti-human CD28 (302934, BioLgend, San Diego, US) and 100 IU/ml recombinant human IL-2 (589104, BioLgend, San Diego, US) pre-coated wells for 3 days.
# TLR5 [5] = target: TLR5 (Homo sapiens, UniProt O60602); assay: biochemical
# Chain of TLR5 (O60602 21-858, species assumed): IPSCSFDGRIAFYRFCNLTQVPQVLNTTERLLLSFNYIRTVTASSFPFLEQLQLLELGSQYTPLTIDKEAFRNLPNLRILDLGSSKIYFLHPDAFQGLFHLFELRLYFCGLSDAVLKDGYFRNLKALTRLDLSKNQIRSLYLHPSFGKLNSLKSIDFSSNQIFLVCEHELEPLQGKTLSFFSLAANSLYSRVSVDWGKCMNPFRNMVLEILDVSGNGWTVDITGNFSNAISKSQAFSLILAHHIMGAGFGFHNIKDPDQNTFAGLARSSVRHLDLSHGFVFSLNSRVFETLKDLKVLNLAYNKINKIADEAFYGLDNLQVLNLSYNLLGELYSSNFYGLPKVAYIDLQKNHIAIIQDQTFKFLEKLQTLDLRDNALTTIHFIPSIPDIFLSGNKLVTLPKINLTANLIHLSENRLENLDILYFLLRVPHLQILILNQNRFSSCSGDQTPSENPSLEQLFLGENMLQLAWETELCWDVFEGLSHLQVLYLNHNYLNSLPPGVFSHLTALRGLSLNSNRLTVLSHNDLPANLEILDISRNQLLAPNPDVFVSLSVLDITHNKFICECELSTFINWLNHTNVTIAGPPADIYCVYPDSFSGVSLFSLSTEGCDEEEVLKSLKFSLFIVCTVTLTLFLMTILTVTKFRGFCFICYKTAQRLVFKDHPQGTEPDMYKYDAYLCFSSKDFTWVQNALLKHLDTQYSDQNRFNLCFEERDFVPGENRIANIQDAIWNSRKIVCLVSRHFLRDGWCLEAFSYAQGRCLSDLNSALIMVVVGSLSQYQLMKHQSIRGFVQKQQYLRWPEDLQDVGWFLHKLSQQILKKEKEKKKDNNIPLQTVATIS
# Tlr5 [6] = assay: qPCR of receptors and transporters on CD8+ T cells; assay type: cell-based, mouse; conditions: butyrate treatment
# Method: Total RNA was extracted with Trizol (15596018, Invitrogen, Waltham, US) from naïve mouse spleen isolated T cells after CD3/CD28/IL-2 activation and R.i CM and Butyrate treatments. Then, RNA was reverse transcript into cDNA with RT reagent kit with gDNA eraser (R[…], Takara, Tokyo, JPN). qPCR was performed using TB Green Premix (R[…], Takara) in the QuantStudio 7 Flex System (Thermo Fisher Scientific, Waltham, US). The relative RNA expression was normalized to that of β-actin as denominators.
# CT26 = assay: ICA model in CT26 syngeneic mice with anti-PD1 and Kyn supplementation; assay type: in vivo, mouse
# Method: For indolecarboxylic acid (ICA) model, ICA (18 mg/kg, Sigma-Aldrich, St. Louis, MO) was gavaged to mice daily. Tumour inoculation and dosing schedule of anti-PD1 or isotype control is the same as described above. After the outgrowth of palpable tumours, kynurenine (Kyn, 10 mg/kg, Sigma-Aldrich) was intraperitoneally injected into mice twice weekly.
# AHR = AHR target gene CYP1B1 expression on CD4+ T cells; assay type: cell-based, mouse
# Method: (§3) T cells were isolated from spleens of tumour-bearing mice by negative selection using magnetic cell separation (EasySep mouse T cell isolation kit, CD8+ T cell isolation kit or CD4+ CD25+ Regulatory T cell Isolation Kit II; STEMCELL Technologies, Vancouver, Canada). Isolated T cells were cultured in Roswell Park Memorial Institute 1640 medium supplemented with 10% FBS, 50 μM β-mercaptoethanol, 10 ng/ml mouse recombinant interleukin-2 (IL-2), 0.1 ng/mL transforming growth factor β (TGFβ) and activated with Dynabeads mouse anti-CD3/CD28 beads (Thermo Fisher Scientific, Waltham, MA) for 72 hours. Cells were then collected for analysis.
# (§4) Total RNAs were extracted from cell pellets or colonic tissues using TRIzol Reagent (Life Technologies). Complementary DNA (cDNA) was prepared using PrimeScript RT Reagent Kit with gDNA Eraser (Takara, Shiga, Japan). The relative level of specific genes was determined by QuantStudio™ 7 Flex Real-Time PCR System (Thermo Fisher Scientific). All gene expression values were normalized to β-actin and calculated using the 2-ΔΔCt method.
# CD4+ T cells = assay: Foxp3+ Treg differentiation of CD4+ T cells in vitro; assay type: cell-based, mouse
# Method: as §3
# human AHR protein = target: T1, human AHR protein (Homo sapiens, UniProt P35869); assay: biochemical; assay type: binding
# T1 sequence (P35869 11-848): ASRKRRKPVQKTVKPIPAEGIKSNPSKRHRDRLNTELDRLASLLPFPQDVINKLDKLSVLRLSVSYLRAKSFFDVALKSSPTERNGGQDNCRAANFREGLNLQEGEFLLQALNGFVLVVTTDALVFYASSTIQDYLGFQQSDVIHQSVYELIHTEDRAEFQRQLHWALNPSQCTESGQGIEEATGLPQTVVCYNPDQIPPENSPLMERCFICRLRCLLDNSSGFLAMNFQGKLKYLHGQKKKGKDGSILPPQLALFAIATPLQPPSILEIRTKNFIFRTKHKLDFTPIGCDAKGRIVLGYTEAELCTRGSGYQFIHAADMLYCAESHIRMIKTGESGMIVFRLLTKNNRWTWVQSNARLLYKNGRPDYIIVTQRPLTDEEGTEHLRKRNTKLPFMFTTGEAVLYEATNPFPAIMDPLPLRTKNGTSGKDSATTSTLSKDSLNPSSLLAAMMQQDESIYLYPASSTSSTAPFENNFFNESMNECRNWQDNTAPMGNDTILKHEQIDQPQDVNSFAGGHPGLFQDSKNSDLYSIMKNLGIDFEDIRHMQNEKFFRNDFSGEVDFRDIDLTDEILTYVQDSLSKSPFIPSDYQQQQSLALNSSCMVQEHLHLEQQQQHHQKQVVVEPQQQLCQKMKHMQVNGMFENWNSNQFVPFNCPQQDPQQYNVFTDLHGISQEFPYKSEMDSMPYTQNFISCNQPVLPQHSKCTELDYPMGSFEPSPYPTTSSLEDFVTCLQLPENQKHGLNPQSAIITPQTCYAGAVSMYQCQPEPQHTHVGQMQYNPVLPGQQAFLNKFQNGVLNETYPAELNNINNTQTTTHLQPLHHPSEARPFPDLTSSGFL
# From the text: We also performed the surface plasma resonance (SPR) assay to explore the interaction between ICA/Kyn with the human AHR receptor. […] These support our hypothesis that ICA displaces Kyn from AHR receptor and inhibited Kyn-mediated Treg differentiation through receptor competition.
# IDO1 = IDO1 mRNA expression in human CRC cell lines induced with IFNγ; assay type: cell-based; conditions: HCT116 and LoVo; ICA 5 μM; IFNγ 100 ng/mL
# Method: as §4
# Given that ICA was identified as the functional metabolite of L. gallinarum (FIG. 4), we postulated that ICA could be an IDO1 inhibitor. We added IFNγ (100 ng/mL) to induce IDO1 expression.
# [7] = ICA 18 mg/kg daily gavage with anti-PD1 vs vehicle control
smiles,measurement,setting,value
"OC[C@H]1O[C@@H](n2cnc3c(O)ncnc32)[C@H](O)[C@@H]1O [inosine, reference compound]",cell viability of CRC cells,"HCT116, LoVo, SW480 [1]",no suppressive effects
same,cell apoptosis,"HCT116, LoVo, SW480 [2]",no suppressive effects
same,cell cycle,"HCT116, LoVo, SW480 [2]",no suppressive effects
same,"Granzyme B+, IFN-γ+, TNF-α+ CD8+ T cells",CD8+ T cells [3],"no effects on Granzyme B^+, IFN-γ^+, TNF-α^+ CD8^+ T cells"
"CCCC(=O)O [butyrate, butyric acid]","production of Granzyme B, IFN-γ and TNF-α in CD8+ T cells",CD8+ T cells [4],"promoted the production of Granzyme B, IFN-γ and TNF-α in CD8^+ T cells"
same,cell viability of CRC cells,"HCT116, LoVo, SW480 [1]",cell viability inhibition
same,cell apoptosis,"HCT116, LoVo, SW480 [2]",apoptosis inducement
same,cell cycle,"HCT116, LoVo, SW480 [2]",cell cycle arrest
same,"Granzyme B+, IFN-γ+, TNF-α+ CD8+ T cells",CD8+ T cells [3],"directly boosted Granzyme B^+, IFN-γ^+, TNF-α^+ CD8^+ T cells"
same,NF-κB nuclear translocation / phospho-NF-κB expression,NF-κB,increased NF-κB nuclear translocation with higher phospho-NF-κB expression
same,pKd,TLR5 [5],3.58
same,Tlr5 expression,Tlr5 [6],much higher
"O=C(O)c1c[nH]c2ccccc12 [ICA, indole-3-carboxylic acid]",IFNγ+ CD8+ T cells,CT26; ICA,increased IFNγ+ CD8+ T cells
same,Kyn level in serum,CT26; ICA,significantly reduced Kyn level
same,Kyn level in tumour,CT26; ICA,significantly reduced Kyn level
same,Kyn/Trp ratio in tumour,CT26; ICA,significantly reduced
same,Treg infiltration,CT26; ICA,reduced Treg infiltration
same,tumour volume,CT26; [7],reduced tumour weight and tumour volume
same,tumour weight,CT26; [7],reduced tumour weight
same,Kyn-induced CYP1B1 expression,AHR; ICA added to Kyn 50 μM,markedly suppressed Kyn-induced CYP1B1 expression
same,CYP1B1 expression,AHR; ICA alone,weakly promoted CYP1B1 expression
same,Kyn-mediated Treg differentiation,CD4+ T cells; ICA added to Kyn 50 μM,antagonized Kyn-mediated Treg differentiation in a dose-dependent manner
same,"Treg differentiation, treatment alone","CD4+ T cells; naïve CD4+ T cells, without Kyn",none significantly affected Treg differentiation
same,ICA dose antagonizing Kyn-mediated Treg differentiation,CD4+ T cells; with Kyn 50 μM,≥ 1.25 µM
same,pKd,human AHR protein,~4.40
same,IDO1 expression,IDO1,significantly suppressed IDO1 expression
